Laboratory results: patent publication US20160324201A1, “SWEETENER COMPOSITION FOR ALLEVIATING DIABETES, CONTAINING SLOWLY DIGESTIBLE INGREDIENT” (CJ CHEILJEDANG CORPORATION, priority 2011, published 2016)

Columns and labels:
[1] = Changes in blood glucose after an identical meal and coffee containing the sweetener composition; type: in vivo, human; details: for Post-meal increase in blood glucose: result in words
Experimental: (1) Preparation of Test Specimen for Measuring Blood Glucose and Method of Intake
(§1) The sweetener composition intake was conducted by providing subjects with an identical meal and then allowing them to drink coffee containing the sweetener composition.
(2) Measurement of Changes in Blood Glucose Levels
(§2) In order to measure changes in blood glucose after the meal, blood glucose level before meal was checked, followed by providing the subjects with the meal and then coffee was given. Blood glucose was measured for 2 hours at intervals of 30 minutes.

[2] = Area under the curve of blood glucose (G-AUC) after meal and coffee containing the sweetener composition; type: in vivo, human
Experimental: as §1, §2

[3] = 0 min (before meal), normal subjects, five males and five females
[4] = 30 min after meal and coffee, * = p < 0.01 or less vs Comparative Example 1 (sugar)
[5] = 60 min after meal and coffee, * = p < 0.01 or less vs Comparative Example 1 (sugar)
[6] = 90 min after meal and coffee, * = p < 0.01 or less vs Comparative Example 1 (sugar)

SMILES	Blood glucose [1, 3] [mg/dL]	Blood glucose [1, 4] [mg/dL]	Blood glucose [1, 5] [mg/dL]	Blood glucose [1, 6] [mg/dL]	Blood glucose ([1]; 120 min after meal and coffee) [mg/dL]	Post-meal increase in blood glucose [1]	G-AUC ([2]; to 30 min) [mg·min/dL]	G-AUC ([2]; to 60 min) [mg·min/dL]	G-AUC ([2]; to 90 min) [mg·min/dL]	G-AUC ([2]; to 120 min) [mg·min/dL]
OC[C@H]1O[C@@](CO)(O[C@H]2O[C@H](CO)[C@@H](O)[C@H](O)[C@H]2O)[C@@H](O)[C@@H]1O [Comparative Example 1, Sugar]	93.1	139.1	123.7	98.5	96.7	highest increase in blood glucose	3483	7425	10758	13686
OC[C@@H](O)[C@@H](O)CO [Comparative Example 2, Erythritol]	92.8	137.1	121.6	97.7	97.2	increase in blood glucose due to the meal only	3449	7329	10619	13542
O=C(CO)[C@H](O)[C@H](O)[C@H](O)CO [Comparative Example 3, D-psicose]	92.4	123.3	114.5	93.1	94.1	lowering increase in blood glucose after the meal	3236	6803	9917	12725
